Test results taken from patent publication US20250230138A1, “COMPOUNDS HAVING A T-STRUCTURE FORMED BY AT LEAST FOUR CYCLES FOR USE IN THE TREATMENT OF CANCER AND OTHER INDICATIONS” (TheRas, Inc., priority 2022, published 2025).
Like-named read-outs stand apart in the source and are kept apart here.

Key:
pAKT in BT474 cells = test: Cell-based pAKT HTRF assay in BT474 cells; conditions: BT474 cells, 4 hr incubation, Compounds 10-999, read-out: pAKT inhibition IC50 in BT474 cells
In short: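 Treatment lasts 4 hr in DMEM/10% FBS at 0.25% DMSO over nine 3-fold dilutions from 3 μM. The lysate is then probed by HTRF.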

[1] = molecular target: Cys242 in human PIK3CA (157-299) (Homo sapiens (Human), UniProt P42336); test: Covalent modification assay using MALDI-TOF MS; type: biochemical; conditions: 4 h reaction time point; 3.33 μM protein target, 1:7.5 protein to compound ratio (compounds 1-852)
In short: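 Covalent adduct formation was read by linear-mode MALDI-TOF with sinapinic acid matrix, reported as modified-protein peak height divided by total protein peak heights. Reactions held PIK3CA (157-299) at 1 or 3.33 μM in HEPES/NaCl/MgCl2 buffer, pH 7.3, sampled after 15 min to 4 h at room temperature.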

Chain of Cys242 in human PIK3CA (157-299) (P42336 157-299): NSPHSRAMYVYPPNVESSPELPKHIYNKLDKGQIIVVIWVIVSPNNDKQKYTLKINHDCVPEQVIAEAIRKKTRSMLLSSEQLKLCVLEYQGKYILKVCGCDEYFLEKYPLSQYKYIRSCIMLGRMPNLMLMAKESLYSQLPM

| SMILES | IC50 (pAKT in BT474 cells) [nM] | IC50 (pAKT in BT474 cells; Homo sapiens, BT-474) [nM] | % of modification [1] |
| --- | --- | --- | --- |
| C=CC(=O)N1Cc2cc(-c3nc(-c4ccc5c(c4)CCN(C)C5)c4ccsc4c3-c3c(F)cc(F)cc3OC)nn2[C@@H](C)C1 [Compound 562] | 100 to 1000 | – | C (25%≤percent of modification <50%) |
| C=CC(=O)N1Cc2cc(-c3nc(-c4ccc5c(c4)CCN(C)C5)c4ccsc4c3-c3c(F)cc(F)cc3OC)nn2[C@@H](C)C1 [Compound 563] | < 100 | – | A (percent of modification of PIK3CA protein ≥75%) |
| C=CC(=O)N1Cc2cc(-c3nc(-c4ccc5c(c4)CCN(C)C5)c4ccsc4c3-c3c(F)cc(F)cc3OCCO)nn2[C@@H](C)C1 [Compound 564] | 100 to 1000 | – | D (percent of modification <25%) |
| C=CC(=O)N1Cc2cc(-c3nc(-c4ccc5c(c4)CCN(C)C5)c4ccsc4c3-c3c(F)cc(F)cc3OCCO)nn2[C@@H](C)C1 [Compound 565] | < 100 | – | A (percent of modification of PIK3CA protein ≥75%) |
| C=CC(=O)N1Cc2cc(-c3nc(-c4cnn(C)c4)c4ccsc4c3-c3c(F)cc(F)cc3OCCO)nn2[C@@H](C)C1 [Compound 566] | 100 to 1000 | – | D (percent of modification <25%) |
| C=CC(=O)N1Cc2cc(-c3nc(-c4cnn(C)c4)c4ccsc4c3-c3c(F)cc(F)cc3OCCO)nn2[C@@H](C)C1 [Compound 567] | < 100 | – | A (percent of modification of PIK3CA protein ≥75%) |
| C=CC(=O)N1CCc2cc(-c3nc(-c4cnc5c(c4)CNC(=O)C5)c4ccsc4c3-c3c(F)cc(F)cc3OC(C)C)nn2CC1 [Compound 568] | < 100 | – | A (percent of modification of PIK3CA protein ≥75%) |
| C=CC(=O)N1CCc2cc(-c3nc(-c4cnn(C)c4)c4ccsc4c3-c3c(F)cc(F)cc3OC(C)C)nn2CC1 [Compound 569] | < 100 | – | A (percent of modification of PIK3CA protein ≥75%) |
| C=CC(=O)N1Cc2cc(-c3nc(-c4ccc5nn(C)cc5c4)c4ccsc4c3-c3c(F)cc(F)cc3OC[C@@H](C)O)nn2[C@@H](C)C1 [Compound 571, 1-((S)-2-((R)-7-(2,4-difluoro-6-((R)-2-hydroxypropoxy)phenyl)-4-(2-methyl-2H-indazol-5-yl)thieno[3,2-c]pyridin-6-yl)-7-methyl-6,7-dihydropyrazolo[1,5-a]pyrazin-5(4H)-yl)prop-2-en-1-one] | < 100 | – | D (percent of modification <25%) |
| C=CC(=O)N1Cc2cc(-c3nc(-c4ccc5nn(C)cc5c4)c4ccsc4c3-c3c(F)cc(F)cc3OC[C@@H](C)O)nn2[C@@H](C)C1 [Compound 572, 1-((S)-2-((S)-7-(2,4-difluoro-6-((R)-2-hydroxypropoxy)phenyl)-4-(2-methyl-2H-indazol-5-yl)thieno[3,2-c]pyridin-6-yl)-7-methyl-6,7-dihydropyrazolo[1,5-a]pyrazin-5(4H)-yl)prop-2-en-1-one] | < 100 | – | A (percent of modification of PIK3CA protein ≥75%) |
| C=CC(=O)N1CCc2cc(-c3nc(-c4ccc5ncn(C)c5c4)c4ccsc4c3-c3c(F)cc(F)cc3OC(C)C)nn2CC1 [Compound 573] | < 100 | – | A (percent of modification of PIK3CA protein ≥75%) |
| C=CC(=O)N1CCn2nc(-c3nc(-c4cnn(C)c4)c4c(c3-c3ccc(F)cc3OC)C(F)CC4)cc2C1 (stereo not shown) [Compound 574, 1-(2-(5-fluoro-4-(4-fluoro-2-methoxyphenyl)-1-(1-methyl-1H-pyrazol-4-yl)-6,7-dihydro-5H-cyclopenta[c]pyridin-3-yl)-6,7-dihydropyrazolo[1,5-a]pyrazin-5(4H)-yl)prop-2-en-1-one] | – | < 100 | A (percent of modification of PIK3CA protein ≥75%) |
| C=C(F)C(=O)N1Cc2cc(-c3nc(-c4ccc5c(c4)CCN(C)C5)c4ccsc4c3-c3c(F)cc(F)cc3OC[C@@H](C)O)nn2C[C@H]1C [Compound 575] | 100 to 1000 | – | D (percent of modification <25%) |
| C=CC(=O)N1Cc2cc(-c3nc(-c4cnn(C)c4)c4ccsc4c3-c3c(F)cc(F)cc3OCCOC)nn2C[C@H]1C [Compound 577] | < 100 | – | A (percent of modification of PIK3CA protein ≥75%) |
| C=CC(=O)N1Cc2cc(-c3nc(-c4cnn(C)c4)c4ccsc4c3-c3c(F)cc(F)cc3OCCOC)nn2C[C@H]1C [Compound 578] | 1000 to 3000 | – | D (percent of modification <25%) |
| C=CC(=O)N1CCc2ccc(-c3nc(-c4cnc5c(c4)CNC(=O)C5)c4ccsc4c3-c3c(F)cc(F)cc3OCCOC)cc2C1 [Compound 579, (R)-3-(6-(2-acryloyl-1,2,3,4-tetrahydroisoquinolin-7-yl)-7-(2,4-difluoro-6-(2-methoxyethoxy)phenyl)thieno[3,2-c]pyridin-4-yl)-5,8-dihydro-1,6-naphthyridin-7(6H)-one] | 1000 to 3000 | – | D (percent of modification <25%) |
| C=CC(=O)N1CCc2ccc(-c3nc(-c4cnc5c(c4)CNC(=O)C5)c4ccsc4c3-c3c(F)cc(F)cc3OCCOC)cc2C1 [Compound 580, (S)-3-(6-(2-acryloyl-1,2,3,4-tetrahydroisoquinolin-7-yl)-7-(2,4-difluoro-6-(2-methoxyethoxy)phenyl)thieno[3,2-c]pyridin-4-yl)-5,8-dihydro-1,6-naphthyridin-7(6H)-one] | < 100 | – | A (percent of modification of PIK3CA protein ≥75%) |
| C=CC(=O)N1Cc2cc(-c3nc(-c4cnn(C)c4)c4ccsc4c3-c3c(F)cc(F)cc3OC[C@@H](C)O)nn2[C@@H](C)C1 [Compound 581] | 100 to 1000 | – | D (percent of modification <25%) |
| C=CC(=O)N1Cc2cc(-c3nc(-c4cnn(C)c4)c4ccsc4c3-c3c(F)cc(F)cc3OC[C@@H](C)O)nn2[C@@H](C)C1 [Compound 582] | < 100 | – | A (percent of modification of PIK3CA protein ≥75%) |
| C=CC(=O)N1C[C@H](C)n2nc(-c3nc(-c4cnn(C)c4)c4ccsc4c3-c3c(F)cc(F)cc3OCCOC)cc2[C@H]1C [Compound 583] | < 100 | – | A (percent of modification of PIK3CA protein ≥75%) |
| C=CC(=O)N1CCn2nc(-c3nc(-c4cnn(C)c4)c4ccsc4c3-c3c(F)cc(F)cc3OCCOC)cc2[C@H]1C [Compound 584] | < 100 | – | A (percent of modification of PIK3CA protein ≥75%) |
| C=CC(=O)N1Cc2cc(-c3nc(-c4ccc5c(c4)CCN(C)C5)c4ccsc4c3-c3c(F)cc(F)cc3OC[C@@H](C)O)nn2[C@@H](C)C1 [Compound 589] | < 100 | – | D (percent of modification <25%) |

Now from value to compound, other results behind:

| IC50 (pAKT in BT474 cells) [nM] | IC50 (pAKT in BT474 cells; Homo sapiens, BT-474) [nM] | SMILES | % of modification [1] |
| --- | --- | --- | --- |
| < 100 | – | C=CC(=O)N1Cc2cc(-c3nc(-c4ccc5c(c4)CCN(C)C5)c4ccsc4c3-c3c(F)cc(F)cc3OC[C@@H](C)O)nn2[C@@H](C)C1 [Compound 590] | A (percent of modification of PIK3CA protein ≥75%) |
| – | < 100 | C=CC(=O)N1C[C@H](C)n2nc(-c3nc(-c4ccc5c(c4)CCN(C)C5)c4ccsc4c3-c3c(F)cc(F)cc3OCCOC)cc2[C@@H]1C [Compound 601, 1-[(4S,7S)-2-[7-[2,4-difluoro-6-(2-methoxyethoxy)phenyl]-4-(2-methyl-3,4-dihydro-1H-isoquinolin-6-yl)thieno[3,2-c]pyridin-6-yl]-4,7-dimethyl-6,7-dihydro-4H-pyrazolo[1,5-a]pyrazin-5-yl]prop-2-en-1-one] | A (percent of modification of PIK3CA protein ≥75%) |
| < 100 | – | C=CC(=O)N1C[C@H](C)n2nc(-c3nc(-c4ccc5ncn(C)c5c4)c4ccsc4c3-c3c(F)cc(F)cc3OCCOC)cc2[C@@H]1C [Compound 602] | A (percent of modification of PIK3CA protein ≥75%) |
| 1000 to 3000 | – | C=CC(=O)N1C[C@H](C)n2nc(-c3nc(-c4cnn(C)c4)c4ccsc4c3-c3c(F)cc(F)cc3OCCOC)cc2[C@@H]1C [Compound 603] | D (percent of modification <25%) |
| < 100 | – | C=CC(=O)N1C[C@H](C)n2nc(-c3nc(-c4ccc5ncn(C)c5c4)c4ccsc4c3-c3c(F)cc(F)cc3OCCOC)cc2[C@H]1C [Compound 604] | A (percent of modification of PIK3CA protein ≥75%) |
| < 100 | – | C=CC(=O)N1Cc2cc(-c3nc(-c4ccc5c(c4)CCN(C)C5)c4ccsc4c3-c3c(F)cc(F)cc3OC[C@@H](C)O)nn2C[C@H]1C [Compound 605] | A (percent of modification of PIK3CA protein ≥75%) |
| 1000 to 3000 | – | C=CC(=O)N1Cc2cc(-c3nc(-c4ccc5c(c4)CCN(C)C5)c4ccsc4c3-c3c(F)cc(F)cc3OC[C@@H](C)O)nn2C[C@H]1C [Compound 606] | D (percent of modification <25%) |
| < 100 | – | C=CC(=O)N1C[C@H](C)n2nc(-c3nc(-c4cnn(C)c4)c4ccsc4c3-c3c(F)cc(F)cc3OCCOC)cc2[C@@H]1C [Compound 607] | A (percent of modification of PIK3CA protein ≥75%) |
| 100 to 1000 | – | C=CC(=O)N1Cc2cc(-c3nc(-c4ccc5c(cnn5C)c4)c4ccsc4c3-c3c(F)cc(F)cc3OC[C@@H](C)O)nn2[C@@H](C)C1 [Compound 608] | D (percent of modification <25%) |
| < 100 | – | C=CC(=O)N1Cc2cc(-c3nc(-c4ccc5c(cnn5C)c4)c4ccsc4c3-c3c(F)cc(F)cc3OC[C@@H](C)O)nn2[C@@H](C)C1 [Compound 609] | A (percent of modification of PIK3CA protein ≥75%) |
